These are literature values, as cited in US20230190776A1, “ENCAPSULATION OF BIOACTIVE INGREDIENTS BY MULTIPLEX EMULSION” (The Board of Regents of the University of Texas System, priority 2021, published 2023).

For this data set the following is noted: up to 14 weeks of administrations; species not given.

Molecules are shown by their SMILES.

Regarding `O=C1CCC[C@@H]2[C@H]3CCC[N+]4([O-])CCC[C@@H](CN12)[C@@H]34` (stereo partly shown) [Oxymatrine], the lethal dose entry is reported as “around 300 mg/kg”.
